Columns and labels:
[1] = tested on: non-alcoholic steatohepatitis (NASH) in MCD mice; experiment: Serum ALT in MCD mice (NASH model), Example 6; format: in vivo, C57BL/6J mice; settings: oral 4 weeks, Antcin K 20 mg/kg, Antcin C 20 and 40 mg/kg, AK-GLU 26.6 mg/kg, better than obeticholic acid 10 mg/kg and DEA 20 mg/kg, FIG. 8
Description: (§1) The MCD mouse model and drug administration method were the same as in Example 4. After the final treatment, the mice were sacrificed, and the liver tissue samples were fixed overnight in 4% paraformaldehyde, embedded in paraffin, and sectioned. The sections were stained with hematoxylin and eosin (H&E) according to the following procedure: immerse the sections in the following solutions sequentially: xylene (I) for 15 minutes, xylene (II) for 15 minutes, 50% xylene-absolute ethanol for 2 minutes, absolute ethanol (I) for 5 minutes, absolute ethanol (II) for 5 minutes, 80% ethanol for 5 minutes, distilled water for 5 minutes, hematoxylin staining solution for 5 minutes, rinse with running water for 5 minutes, 1% hydrochloric acid ethanol for 30 seconds, rinse with water for 30 seconds, wash with distilled water for 5 seconds, 0.5% eosin staining solution for 2 minutes, rinse with distilled water for 30 seconds, 80% ethanol for 30 seconds, 95% ethanol (I) for 1 minute, 95% ethanol (II) for 1 minute, absolute ethanol (I) for 3 minutes, absolute ethanol (II) for 3 minutes, xylene (I) for 3 minutes, xylene (II) for 3 minutes, and mount with neutral resin.
(§2) The treated groups were compared with untreated MCD mice (“MCD”) and normal mice (“Nor”). The drug administration doses were as follows: positive control obeticholic acid (OCA): 10 mg/kg; Antcin K (AK): 20 mg/kg; low-dose Antcin C (AC-L): 20 mg/kg; high-dose Antcin C (AC-H): 40 mg/kg; DEA: 20 mg/kg; AK-GLU: 26.6 mg/kg.
After the final treatment, the mice were fasted overnight, sacrificed, and blood was collected from the eye vein. The whole blood was allowed to stand for 2 hours, centrifuged at 6000 rpm for 10 minutes, and the serum was obtained.

[2] = tested on: non-alcoholic steatohepatitis (NASH) in MCD mice; experiment: Pathological (H&E) staining of liver sections from MCD mice, Example 6; format: in vivo, C57BL/6J mice; settings: oral 4 weeks, Antcin K 20 mg/kg, Antcin C 20 and 40 mg/kg, AK-GLU 26.6 mg/kg, better than obeticholic acid and DEA, FIG. 9
Description: as §1, §2

FGF21 [3] = experiment: Serum FGF21 protein in MCD mice (ELISA); format: in vivo, C57BL/6J mice; settings: oral 4 weeks, Antcin K 20 mg/kg, Antcin C 20 and 40 mg/kg, AK-GLU 26.6 mg/kg, compared to DEA, FIG. 10
Description: The modeling and treatment of MCD mice were conducted as described in Example 4. The treated groups were compared with untreated MCD mice (“MCD”) and normal mice (“Nor”). The dosages for each treatment group were as follows: positive control obeticholic acid (“OCA”): 10 mg/kg; Antcin K (“AK”): 20 mg/kg; low-dose Antcin C (“AC-L”): 20 mg/kg; high-dose Antcin C (“AC-H”): 40 mg/kg; DEA: 20 mg/kg; AK-GLU: 26.6 mg/kg.
The serum sampling method from mice was the same as in Example 6. The FGF21 levels were tested using an ELISA kit (Beyotime), with the following procedure: The microplate was equilibrated at room temperature for 20 minutes. Then, 50 μL of serum samples or different concentrations of standards were added to each well. Next, 100 μL of HRP-conjugated detection antibody was added, and the plate was covered with a sealing film and incubated at 37° C. for 60 minutes. The liquid was discarded, and the plate was dried with absorbent paper. Each well was then washed with 350 μL of washing buffer, left for 1 minute, and the liquid was discarded and dried with absorbent paper. This washing step was repeated 5 times. Then, 50 μL of Substrate A and 50 μL of Substrate B were added to each well and incubated at 37° C. in the dark for 15 minutes. After that, 50 μL of stop solution was added to each well, and the absorbance at 450 nm was measured within 15 minutes. A standard curve was plotted with the absorbance of the standards on the vertical axis and the standard concentrations on the horizontal axis. The serum sample absorbance values were used to determine the FGF21 protein concentrations based on this standard curve.

FGF21 [4] = experiment: FGF21 gene expression in the liver of MCD mice (qPCR); format: in vivo, C57BL/6J mice; settings: oral 4 weeks, Antcin C 20 and 40 mg/kg, AK-GLU 26.6 mg/kg, compared to DEA 20 mg/kg, FIG. 6
Description: Four-week-old male C57BL/6J mice were purchased from the Experimental Animal Center, Peking University Health Science Center. The mice were randomly divided into groups, with 10 mice per group. Methionine choline-deficient diet (MCD) was used to induce non-alcoholic steatohepatitis (NASH), forming the MCD model mice. The model mice were treated with an oral administration of drugs for 4 weeks. After the final treatment, the mice were fasted overnight, and then sacrificed. Serum and liver tissues were stored at −80° C., which could be compared with untreated MCD mice (“MCD”) and normal mice (“Nor” or “Normal”). The dosing amounts for each group were as follows: low-dose Antcin C (“AC-L”): 20 mg/kg; high-dose Antcin C (“AC-H”): 40 mg/kg; DEA: 20 mg/kg; AK-GLU: 26.6 mg/kg.
Total RNA Extraction: Liver tissue samples from the mice (10-20 mg) were cut into pieces and added to 1 ml of Tranzol. The mixture was placed on ice and homogenized, then transferred to an RNase-free and DNase-free EP tube. To each tube, 0.2 ml of chloroform was added, and the mixture was vigorously shaken for 15 seconds. After incubation at low temperature for 3 minutes, the mixture was centrifuged at 12000 rpm for 15 minutes at 4° C. The aqueous upper phase was transferred to a new EP tube, and an equal volume of isopropanol was added. […] RNA concentration was measured using a spectrophotometer with an A260/280 ratio. […]

RDH10 = molecular target: T1, RDH10 (Mus musculus, UniProt Q8VCH7); experiment: Protein fishing (pull-down) with molecular probe and proteomics analysis; format: binding, C57BL/6J mice
T1 construct: Take approximately 50 mg of liver tissue from C57BL/6J mice and add 1 mL of RIPA lysis buffer; from tissue; host or cells: mouse liver (C57BL/6J) lysate
T1 sequence (Q8VCH7 1-341): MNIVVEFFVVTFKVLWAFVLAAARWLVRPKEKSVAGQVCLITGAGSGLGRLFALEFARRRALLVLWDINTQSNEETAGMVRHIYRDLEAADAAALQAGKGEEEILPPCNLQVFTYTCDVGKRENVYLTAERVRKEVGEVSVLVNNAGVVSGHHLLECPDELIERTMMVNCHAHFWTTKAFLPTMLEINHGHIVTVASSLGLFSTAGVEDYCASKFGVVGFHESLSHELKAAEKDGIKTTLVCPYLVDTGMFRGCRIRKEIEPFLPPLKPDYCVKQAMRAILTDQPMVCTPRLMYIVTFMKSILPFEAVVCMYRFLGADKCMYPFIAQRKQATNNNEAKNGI
Description: • 1. Preparation of Liver Protein: Take approximately 50 mg of liver tissue from C57BL/6J mice and add 1 mL of RIPA lysis buffer. Lyse the proteins on ice, then centrifuge at 12,000 rpm for 30 minutes at 4° C. Collect the supernatant, measure the protein concentration using BCA method, and dilute to 1 mg/mL with PBS. • 2. Sample Preparation: Prepare new 1.5 mL EP tubes and divide them into control group, drug group, and competitive inhibition group. Add 100 μL of PBS solution containing 40 μM Biotin to the control group, 100 μL of PBS solution containing 40 μM ACS-biotin (prepared in Example 1) to the drug group, and 100 μL of PBS solution containing 40 μM ACS-biotin and 400 μM ACS to the competitive inhibition group. Then, add 100 μL of liver protein lysate (1 mg/mL) to each tube and incubate on a shaking incubator at 4° C. for 2 hours. • 3. Washing Streptavidin Beads: Add 100 μL of streptavidin beads to new 1.5 mL EP tubes and centrifuge at 2,700 rpm for 1 minute. Discard the supernatant and wash the beads with 100 μL of PBS three times. • 4. Binding and Washing: Add the solutions from step 2 to the washed streptavidin beads. Incubate on a shaking incubator at 4° C. for 2 hours, then centrifuge at 2,700 rpm for 1 minute. Discard the supernatant and wash the beads with 100 μL of PBS three times. • 5. Protein Elution: Add 50 μL of PBS to the beads, mix well, and then add 5×SDS-PAGE sample buffer. Boil for 5 minutes and centrifuge at 13,000 rpm for 5 minutes. Store the supernatant at −20° C. for SDS-PAGE gel electrophoresis. • 6. Protein Detection: Stain with Coomassie Brilliant Blue and cut the gel for proteomics analysis.

FGF21 [5] = experiment: FGF21 protein expression in the liver of MCD mice (Western blot); format: in vivo, C57BL/6J mice; settings: oral 4 weeks, Antcin K 20 mg/kg, Antcin C 20 and 40 mg/kg, compared to DEA 20 mg/kg, FIG. 7
Description: The modeling and procedures for MCD mice are as described in Example 4. Comparisons were made between the treated groups and untreated MCD mice (“MCD”) and normal mice (“Normal”). The dosing for each treatment group was as follows: positive drug obeticholic acid (“OCA”): 10 mg/kg; Antcin K (“AK”): 20 mg/kg; low-dose Antcin C (“AC-L”): 20 mg/kg; high-dose Antcin C (“AC-H”): 40 mg/kg; DEA: 20 mg/kg.
Liver tissue (15-20 mg) was homogenized in RIPA lysis buffer on ice, and then centrifuged at 13,000 rpm for 30 minutes at 4° C. The middle layer liquid was transferred to a new centrifuge tube and the protein concentration was measured using BCA method. For each sample, 20 μg of protein was separated by SDS-PAGE and then transferred to a PDVF membrane using Bio-Rad's standard wet transfer system at 200 mA for 60 minutes. Subsequently, the membrane was cut according to protein molecular weight and blocked with 0.5% BSA at room temperature for 60 minutes. The primary antibody was incubated at 4° C. for 14 hours, followed by washing with TBST at room temperature 3 times for 5 minutes each. The secondary antibody was incubated at room temperature for 1 hour, followed by washing with TBST at room temperature 3 times for 10 minutes each. ECL reagent was used for detection.

[6] = tested on: non-alcoholic steatohepatitis; settings: reported; cited from earlier work

Row | Compound | serum ALT levels [1] | steatosis and ballooning in the liver [2] | serum FGF21 protein levels (FGF21 [3]) | gene expression levels of FGF21 in vivo (FGF21 [4]) | log2 (ACS-biotin/ACS-biotin+ACS) for RDH10 protein (RDH10; 40 μM ACS-biotin vs 40 μM ACS-biotin + 400 μM ACS, FIG. 14C) | log2 (ACS-biotin/Biotin) for RDH10 (RDH10; 40 μM ACS-biotin vs 40 μM Biotin, mouse liver protein lysate, FIG. 14B) | FGF21 protein expression levels in liver (FGF21 [5]) | effect in preventing and treating non-alcoholic steatohepatitis [6]
1 | C=C(CC[C@@H](C)[C@H]1CC[C@H]2C3=C(C(=O)C[C@]12C)[C@@]1(C)CC[C@@H](O)[C@](C)(O)[C@@H]1C[C@@H]3O[C@@H]1OC(CO)[C@@H](O)[C@H](O)C1O)C(C)C(=O)O (stereo partly shown) [AK-GLU, Antcin K-7-O-glucoside] | significantly reduced | significantly reduced | significantly upregulated | significantly activated | – | – | – | –
2 | 25S-Antcin C—CO—NH-PEG2-biotin [ACS-biotin] | – | – | – | – | > 0 | > 6 | – | –
3 | C=C(CC[C@@H](C)[C@H]1CC[C@H]2C3=C(C(=O)C[C@]12C)[C@@]1(C)CCC(=O)[C@@H](C)[C@@H]1C[C@@H]3O)C(C)C(=O)O (stereo partly shown) [Antcin C] | significantly reduced | significantly reduced | significantly upregulated | significantly activated | – | – | significantly upregulated | –
4 | C=C(CC[C@@H](C)[C@H]1CC[C@H]2C3=C(C(=O)C[C@]12C)[C@@]1(C)CC[C@@H](O)[C@](C)(O)[C@@H]1C[C@@H]3O)C(C)C(=O)O (stereo partly shown) [Antcin K] | significantly reduced | significantly reduced | significantly upregulated | – | – | – | significantly upregulated | –
5 | C=C(CC[C@@H](C(=O)O)[C@H]1CC[C@@]2(C)C3=CC[C@H]4C(C)(C)[C@@H](O)CC[C@]4(C)C3=CC[C@]12C)C(C)C [DEA] | – | – | – | – | – | – | – | relatively weak
